From ChEMBL document CHEMBL5518167, “Degradation of Polo-like Kinase 1 by the Novel Poly-Arginine N-Degron Pathway PROTAC Regulates Tumor Growth in Nonsmall Cell Lung Cancer” (J Med Chem, 2024) come the findings set out here.

One may read the IC50 as the concentration at which inhibition is half-maximal. The term Emax denotes the greatest response seen or fitted, relative to the assay's reference.

The subject of data set [1] is NCI-H1975. The experiment in a line: Cytotoxicity against human NCI-H1975 cells incubated for 24 hrs by MTT assay. The data set is classed as functional, cell-based. As to conditions: NCI-H1975, 24 h.
Data set [2] concerns the target E3 ubiquitin-protein ligase UBR2 (Homo sapiens) (UniProt Q8IWV8). Put plainly: Binding affinity to UBR2 (unknown origin) expressed in HEK293T cells incubated for 3 hrs by pull-down assay. The data set is classed as cell-based.
The subject of data set [3] is HeLa. The experiment in a line: Induction of cell cycle arrest in human HeLa cells assessed as G2/M phase arrest at 10 uM incubated for 24 hrs by PI staining based flow cytometry analysis. The data set is classed as functional. (Flow cytometry measures light scatter and fluorescence of single cells or particles in a stream.)
Data set [4] deals with A549. The experiment in a line: Induction of cell cycle arrest in human A549 cells assessed as G2/M phase arrest at 10 uM incubated for 24 hrs by PI staining based flow cytometry analysis. The data set is classed as functional.
Data set [5] concerns NCI-H1975. Put plainly: Induction of cell cycle arrest in human NCI-H1975 cells assessed as delay in S phase progression at 10 uM incubated for 24 hrs by PI staining based flow cytometry analysis. Format: functional.
In data set [6] the test system is NCI-H1975. Put plainly: Induction of cell cycle arrest in human NCI-H1975 cells assessed as fold increase in S phase population at 10 uM incubated for 24 hrs by PI staining based flow cytometry analysis. The data set is classed as functional.
Data set [7] has as its system HeLa. Put plainly: Induction of apoptosis in human HeLa cells at 18 uM incubated for 24 hrs by fluorescence microscopic analysis. Format: functional, cell-based.
Data set [8] relates to PC-9. The experiment in a line: Induction of apoptosis in human PC-9 cells at 25 uM incubated for 24 hrs by fluorescence microscopic analysis. Format: functional, cell-based.
Data set [9] deals with NCI-H1975. The experiment in a line: Induction of apoptosis in human NCI-H1975 cells at 25 uM incubated for 24 hrs by fluorescence microscopic analysis. The data set is classed as functional, cell-based.
The nature of data set [10]: Drug uptake in human HeLa cells nucleus at 10 uM incubated for 24 hrs by PI staining based inverted confocal laser scanning fluorescence microscopic anlaysis. Format: ADME, subcellular.
The nature of data set [11]: Drug uptake in human HeLa cells cell membrane at 10 uM incubated for 24 hrs by PI staining based inverted confocal laser scanning fluorescence microscopic analysis. The data set is classed as ADME.
Data set [12] has as its system PC-9. The experiment in a line: Antitumor activity against human PC-9 cells xenografted in nude mouse assessed as fold reduction in tumor size at 10 mg/kg, iv. Format: functional. On the technique in general: In xenograft studies the graft and the host belong to different species.
Data set [13] deals with NCI-H1975. The experiment in a line: Antitumor activity against human NCI-H1975 cells harboring L858R/T790M double mutant xenografted in iv dosed nude mouse assessed as tumor growth inhibition administered for every 3 days in presence of 5 mg/kg osimertinib. The data set is classed as functional, organism-based.
In data set [14] the test system is NCI-H1975. The experiment in a line: Antitumor activity against human NCI-H1975 cells harboring L858R/T790M double mutant xenografted in nude mouse assessed as fold reduction in tumor size at 10 mg/kg, iv administered for every 3 days in presence of 5 mg/kg osimertinib. The data set is classed as functional.
Data set [15] relates to NCI-H1975. The experiment in a line: Antitumor activity against human NCI-H1975 cells harboring L858R/T790M double mutant xenografted in nude mouse assessed as fold reduction in tumor growth at 10 mg/kg, iv administered for every 3 days in presence of 5 mg/kg osimertinib. Format: functional.
A short description of data set [16]: Toxicity in nude mouse xenografted with human NCI-H1975 cells assessed as change in body weight at 10 mg/kg, iv administered for every 3 days. Format: organism-based. To be noted: in vivo, 72 h.
The nature of data set [17]: In vivo induction of PLK1 degradation in nude mouse xenografted with human NCI-H1975 cells assessed as reduction in PLK1 protein expression at 10 mg/kg, iv administered for every 3 days in presence of 5 mg/kg osimertinib by Western blotting analysis. The data set is classed as functional. Also on record: scale not given: the % may be the effect or the level left.
The test system of data set [18] is UBR/PLK1 (Homo sapiens). Put plainly: Protac activity at UBR/PLK1 in human HeLa cells assessed as PLK1 degradation at 5 uM incubated for 24 hrs by immunoblotting analysis. Background: A western blot detects proteins with antibodies after separation by electrophoresis.
The subject of data set [19] is UBR/PLK1 (Homo sapiens). The experiment in a line: Protac activity at UBR/PLK1 in human PC-9 cells assessed as PLK1 degradation at 25 uM incubated for 24 hrs by immunoblotting analysis.
For data set [20], the system named is UBR/PLK1 (Homo sapiens). The experiment in a line: Protac activity at UBR/PLK1 in human PC-9 cells assessed as PLK1 degradation at 30 uM incubated for 24 hrs by immunoblotting analysis.
The subject of data set [21] is UBR/PLK1 (Homo sapiens). Put plainly: Protac activity at UBR/PLK1 in human A549 cells assessed as PLK1 degradation at 30 uM incubated for 24 hrs by immunoblotting analysis.
The subject of data set [22] is UBR/PLK1 (Homo sapiens). Put plainly: Protac activity at UBR/PLK1 in human NCI-H1975 cells assessed as PLK1 degradation at 10 uM incubated for 2 to 24 hrs by immunoblotting analysis. To be noted: time 2-24 hrs.
Data set [23] deals with UBR/PLK1 (Homo sapiens). Put plainly: Protac activity at UBR/PLK1 in human A549 cells assessed as PLK1 degradation at 5 to 30 uM preincubated for 24 hrs followed by MG132 addition for 8 hrs by immunoblotting analysis. As to conditions: dose 5-30 µM, time 32.0 hrs.
Data set [24] concerns UBR/PLK1 (Homo sapiens). Put plainly: Protac activity at UBR/PLK1 in human PC-9 cells assessed as PLK1 degradation at 5 to 30 uM preincubated for 24 hrs followed by MG132 addition for 8 hrs by immunoblotting analysis. To be noted: dose 5-30 µM, time 32.0 hrs.

Calls of active or inactive are those of the source. The rule behind the calls is not given here. Where a SMILES comes first, the peptide text is derived from it. Bridges are numbered along the chain shown (N, C = ends). [ ]: non-standard residue; d: D form. His(π-(CH2)8Ph) = N[C@@H](Cc1cncn1CCCCCCCCc1ccccc1)C(=O)O; pT = C[C@@H](OP(=O)(O)O)[C@H](N)C(=O)O; Ahx = NCCCCCC(=O)O

Chain of E3 ubiquitin-protein ligase UBR2 (Homo sapiens) (Q8IWV8 whole entry): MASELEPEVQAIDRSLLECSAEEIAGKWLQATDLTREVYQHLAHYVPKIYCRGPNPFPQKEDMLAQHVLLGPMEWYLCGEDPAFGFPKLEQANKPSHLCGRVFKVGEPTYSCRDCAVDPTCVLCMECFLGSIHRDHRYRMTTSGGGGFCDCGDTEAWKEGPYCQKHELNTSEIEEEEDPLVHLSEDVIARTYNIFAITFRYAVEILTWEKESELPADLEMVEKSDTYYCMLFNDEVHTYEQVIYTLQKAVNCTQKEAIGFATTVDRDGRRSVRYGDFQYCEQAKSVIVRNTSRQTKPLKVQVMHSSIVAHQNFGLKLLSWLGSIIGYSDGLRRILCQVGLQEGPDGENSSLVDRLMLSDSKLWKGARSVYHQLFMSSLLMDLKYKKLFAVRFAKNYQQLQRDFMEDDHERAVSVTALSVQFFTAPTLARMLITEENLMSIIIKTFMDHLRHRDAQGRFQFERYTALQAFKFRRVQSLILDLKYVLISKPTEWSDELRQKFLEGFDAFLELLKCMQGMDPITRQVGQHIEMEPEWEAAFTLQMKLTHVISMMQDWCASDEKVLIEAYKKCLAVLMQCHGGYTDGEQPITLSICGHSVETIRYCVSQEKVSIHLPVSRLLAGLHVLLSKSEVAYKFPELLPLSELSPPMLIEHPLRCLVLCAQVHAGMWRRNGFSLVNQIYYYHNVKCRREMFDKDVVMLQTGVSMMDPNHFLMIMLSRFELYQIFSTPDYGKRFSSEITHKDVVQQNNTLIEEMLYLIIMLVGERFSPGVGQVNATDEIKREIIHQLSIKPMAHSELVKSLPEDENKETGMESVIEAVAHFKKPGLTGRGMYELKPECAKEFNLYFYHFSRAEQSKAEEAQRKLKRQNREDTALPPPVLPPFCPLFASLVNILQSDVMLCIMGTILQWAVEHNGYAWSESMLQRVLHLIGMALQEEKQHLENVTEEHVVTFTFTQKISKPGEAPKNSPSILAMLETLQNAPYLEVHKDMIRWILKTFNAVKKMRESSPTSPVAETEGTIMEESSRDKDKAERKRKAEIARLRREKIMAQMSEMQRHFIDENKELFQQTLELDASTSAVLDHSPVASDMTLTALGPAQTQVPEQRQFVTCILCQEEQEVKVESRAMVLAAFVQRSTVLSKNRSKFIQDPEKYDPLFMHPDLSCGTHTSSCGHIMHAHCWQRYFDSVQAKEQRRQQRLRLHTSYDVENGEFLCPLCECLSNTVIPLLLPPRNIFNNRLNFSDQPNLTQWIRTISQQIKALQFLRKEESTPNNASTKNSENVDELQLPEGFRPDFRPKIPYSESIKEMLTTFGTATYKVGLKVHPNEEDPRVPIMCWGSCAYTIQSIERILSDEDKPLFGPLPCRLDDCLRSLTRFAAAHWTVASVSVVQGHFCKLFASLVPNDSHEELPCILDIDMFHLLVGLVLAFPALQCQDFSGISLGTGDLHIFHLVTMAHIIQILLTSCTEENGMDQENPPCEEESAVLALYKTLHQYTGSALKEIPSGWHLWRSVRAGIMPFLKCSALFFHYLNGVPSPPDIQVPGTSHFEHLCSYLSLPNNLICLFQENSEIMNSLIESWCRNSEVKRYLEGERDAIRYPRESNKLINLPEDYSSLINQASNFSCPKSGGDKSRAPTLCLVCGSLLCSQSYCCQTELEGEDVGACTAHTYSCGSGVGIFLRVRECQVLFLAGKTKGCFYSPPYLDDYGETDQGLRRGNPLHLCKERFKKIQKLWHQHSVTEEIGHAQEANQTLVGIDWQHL

In the case of `C[C@@H](OP(=O)(O)O)[C@@H]1NC(=O)[C@H](Cc2cncn2CCCCCCCCc2ccccc2)NC(=O)[C@@H](NC(=O)CCCCCNC(=O)[C@H](CCCNC(=N)N)NC(=O)[C@H](CCCNC(=N)N)NC(=O)[C@H](CCCNC(=N)N)NC(=O)[C@H](CCCNC(=N)N)NC(=O)[C@H](CCCNC(=N)N)NC(=O)[C@H](CCCNC(=N)N)NC(=O)[C@H](CCCNC(=N)N)NC(=O)[C@H](CCCNC(=N)N)NC(=O)[C@H](CCCNC(=N)N)NC(=O)[C@H](CCCNC(=N)N)NC(=O)[C@H](CCCNC(=N)N)NC(=O)[C@@H](N)CCCNC(=N)N)CCC(=O)NCCCC[C@@H](C(N)=O)NC1=O` (H-RRRRRRRRRRRR[Ahx]E[His(π-(CH2)8Ph)][pT]K-NH2; lactam 14-17), in [1], half-maximal inhibition (IC50) was put at 24.4 µM. Moreover, the outcome in data set [2], in [5], in data set [6], in [7], in data set [8] and in data set [9] was Active. Moreover, the outcome in data set [22] was Active. Moreover, the Activity in data set [3] was 21%; in [4], 10%; in [13] it was “Dose-Dependent Effect”; in [16], “Non-Toxic”; in [17], 75%; in data set [19], greater than 90%. Further, the Drug uptake entry in [10] and in [11] was “Active” in each case. The “fold change (FC)” value in data set [12] is reported as 5.2; in [14], 3.5; in [15], roughly 7. For the same molecule, the Emax in data set [18] is 80%; in data set [20], 100%; in [21] it was greater than 60%. The outcome in data set [23] and in [24] was inactive.
